{
  "source": "ChEMBL document CHEMBL3745631",
  "about": "“Discovery of highly potent and selective Bruton's tyrosine kinase inhibitors: Pyridazinone analogs with improved metabolic stability” (Bioorg Med Chem Lett, 2016)",
  "key": {"[1]": {"target": "Platelet-derived growth factor receptor alpha (Homo sapiens) (UniProt P16234)", "assay": "Inhibition of PDGFR alpha (unknown origin) at 1 uM"}, "[2]": {"target": "Homeodomain-interacting protein kinase 2 (Homo sapiens) (UniProt Q9H2X6)", "assay": "Inhibition of HIPK2 (unknown origin) at 1 uM"}, "[3]": {"target": "Serine/threonine-protein kinase 33 (Homo sapiens) (UniProt Q9BYT3)", "assay": "Inhibition of STK33 (unknown origin) at 1 uM"}, "[4]": {"target": "Tyrosine-protein kinase Srms (Homo sapiens) (UniProt Q9H3Y6)", "assay": "Inhibition of Srm (unknown origin) at 1 uM"}, "[5]": {"target": "Sphingosine kinase 1 (Homo sapiens) (UniProt Q9NYA1)", "sequence (Q9NYA1 whole entry)": "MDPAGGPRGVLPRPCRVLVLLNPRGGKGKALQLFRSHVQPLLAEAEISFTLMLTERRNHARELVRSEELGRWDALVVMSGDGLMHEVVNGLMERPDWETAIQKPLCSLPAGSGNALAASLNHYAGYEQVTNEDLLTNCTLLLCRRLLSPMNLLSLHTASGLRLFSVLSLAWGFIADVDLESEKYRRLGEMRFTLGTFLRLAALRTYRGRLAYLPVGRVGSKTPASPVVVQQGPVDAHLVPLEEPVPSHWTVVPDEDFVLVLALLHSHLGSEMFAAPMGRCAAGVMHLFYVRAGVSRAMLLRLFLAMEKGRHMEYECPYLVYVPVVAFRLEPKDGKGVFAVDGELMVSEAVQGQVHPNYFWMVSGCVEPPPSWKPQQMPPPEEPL", "assay": "Inhibition of SPHK1 (unknown origin) at 1 uM"}, "[6]": {"target": "Tyrosine-protein kinase Tec (Homo sapiens, UniProt P42680)", "sequence (P42680 whole entry)": "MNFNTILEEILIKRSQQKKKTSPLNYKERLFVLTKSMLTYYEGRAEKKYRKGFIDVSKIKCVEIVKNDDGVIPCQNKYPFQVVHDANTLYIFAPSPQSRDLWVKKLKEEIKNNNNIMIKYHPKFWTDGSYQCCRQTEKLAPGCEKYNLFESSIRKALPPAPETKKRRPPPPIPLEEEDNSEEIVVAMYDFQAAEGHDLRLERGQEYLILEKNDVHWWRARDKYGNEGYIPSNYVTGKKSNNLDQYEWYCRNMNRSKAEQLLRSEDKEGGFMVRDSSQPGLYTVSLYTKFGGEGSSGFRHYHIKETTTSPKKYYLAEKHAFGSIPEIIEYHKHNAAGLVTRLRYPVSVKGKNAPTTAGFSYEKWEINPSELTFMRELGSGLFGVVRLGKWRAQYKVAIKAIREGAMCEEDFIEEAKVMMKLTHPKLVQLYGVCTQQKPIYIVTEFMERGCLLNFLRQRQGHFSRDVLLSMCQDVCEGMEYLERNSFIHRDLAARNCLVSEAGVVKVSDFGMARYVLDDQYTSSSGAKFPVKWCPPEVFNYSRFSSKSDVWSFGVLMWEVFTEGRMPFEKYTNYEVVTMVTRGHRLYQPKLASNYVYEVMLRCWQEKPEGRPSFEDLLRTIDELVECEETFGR", "assay": "Inhibition of TEC (unknown origin)"}, "[7]": {"target": "Insulin receptor (Homo sapiens) (UniProt P06213)", "assay": "Inhibition of InsR (unknown origin) at 1 uM"}, "[8]": {"target": "Myotonin-protein kinase (Homo sapiens) (UniProt Q09013)", "assay": "Inhibition of DMPK (unknown origin) at 1 uM"}, "[9]": {"target": "Tyrosine-protein kinase SYK (Homo sapiens) (UniProt P43405)", "assay": "Inhibition of Syk (unknown origin) at 1 uM"}, "[10]": {"target": "Tyrosine-protein kinase HCK (Homo sapiens) (UniProt P08631)", "assay": "Inhibition of Hck (unknown origin) at 1 uM"}, "[11]": {"target": "Calcium/calmodulin-dependent protein kinase type IV (Homo sapiens) (UniProt Q16566)", "assay": "Inhibition of CamK4(unknown origin) at 1 uM"}, "[12]": {"target": "Homeodomain-interacting protein kinase 1 (Homo sapiens) (UniProt Q86Z02)", "assay": "Inhibition of HIPK1 (unknown origin) at 1 uM"}, "[13]": {"target": "Bone morphogenetic protein receptor type-1A (Homo sapiens) (UniProt P36894)", "assay": "Inhibition of BMPR1A (unknown origin) at 1 uM"}, "[14]": {"target": "Mitogen-activated protein kinase 8 (Homo sapiens) (UniProt P45983)", "assay": "Inhibition of JNK1 alpha1 (unknown origin) at 1 uM"}, "[15]": {"target": "Serine/threonine-protein kinase PAK 6 (Homo sapiens) (UniProt Q9NQU5)", "assay": "Inhibition of PAK6 (unknown origin) at 1 uM"}, "[16]": {"target": "cAMP-dependent protein kinase catalytic subunit PRKX (Homo sapiens) (UniProt P51817)", "assay": "Inhibition of PrKX (unknown origin) at 1 uM"}, "Salmonella typhimurium": {"tested_on": "Salmonella typhimurium", "assay": "Genotoxicity in Salmonella typhimurium TA100 by Ames test in presence of S9 fraction", "format": "toxicity, organism-based", "details": "salmonella enterica subsp. enterica serovar typhimurium"}, "[17]": {"target": "Serine/threonine-protein kinase PAK 1 (Homo sapiens) (UniProt Q13153)", "assay": "Inhibition of PAK1 (unknown origin) at 1 uM"}, "[18]": {"target": "Calcium/calmodulin-dependent protein kinase type 1D (Homo sapiens) (UniProt Q8IU85)", "assay": "Inhibition of CaMK1 delta (unknown origin) at 1 uM"}, "[19]": {"target": "Macrophage colony-stimulating factor 1 receptor (Homo sapiens) (UniProt P07333)", "assay": "Inhibition of CSF1R (unknown origin) at 1 uM"}, "[20]": {"target": "G protein-coupled receptor kinase 5 (Homo sapiens) (UniProt P34947)", "assay": "Inhibition of GRK5 (unknown origin) at 1 uM"}, "[21]": {"target": "Dual specificity protein kinase CLK4 (Homo sapiens) (UniProt Q9HAZ1)", "assay": "Inhibition of CLK4 (unknown origin) at 1 uM"}, "[22]": {"target": "Insulin receptor-related protein (Homo sapiens) (UniProt P14616)", "sequence (P14616 27-742 limits assumed)": "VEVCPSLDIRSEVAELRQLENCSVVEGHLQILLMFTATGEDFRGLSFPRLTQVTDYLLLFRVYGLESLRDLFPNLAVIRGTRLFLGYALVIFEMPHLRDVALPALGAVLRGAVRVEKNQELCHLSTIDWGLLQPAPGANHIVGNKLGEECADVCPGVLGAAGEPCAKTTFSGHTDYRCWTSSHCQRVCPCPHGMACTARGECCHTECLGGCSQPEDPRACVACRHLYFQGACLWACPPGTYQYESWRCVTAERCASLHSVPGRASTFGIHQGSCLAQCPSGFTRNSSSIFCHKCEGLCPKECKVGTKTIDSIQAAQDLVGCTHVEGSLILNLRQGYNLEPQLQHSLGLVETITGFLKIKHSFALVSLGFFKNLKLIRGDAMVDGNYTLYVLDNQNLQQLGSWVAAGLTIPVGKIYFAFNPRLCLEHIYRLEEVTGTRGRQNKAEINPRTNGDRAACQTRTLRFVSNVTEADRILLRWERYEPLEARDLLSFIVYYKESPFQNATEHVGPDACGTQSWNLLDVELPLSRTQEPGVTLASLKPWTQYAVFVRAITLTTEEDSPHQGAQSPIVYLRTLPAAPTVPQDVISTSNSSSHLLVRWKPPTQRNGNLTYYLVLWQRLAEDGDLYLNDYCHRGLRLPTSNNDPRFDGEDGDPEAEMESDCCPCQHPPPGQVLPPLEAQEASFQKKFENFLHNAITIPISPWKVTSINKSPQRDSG", "sequence (P14616 747-1297 limits assumed)": "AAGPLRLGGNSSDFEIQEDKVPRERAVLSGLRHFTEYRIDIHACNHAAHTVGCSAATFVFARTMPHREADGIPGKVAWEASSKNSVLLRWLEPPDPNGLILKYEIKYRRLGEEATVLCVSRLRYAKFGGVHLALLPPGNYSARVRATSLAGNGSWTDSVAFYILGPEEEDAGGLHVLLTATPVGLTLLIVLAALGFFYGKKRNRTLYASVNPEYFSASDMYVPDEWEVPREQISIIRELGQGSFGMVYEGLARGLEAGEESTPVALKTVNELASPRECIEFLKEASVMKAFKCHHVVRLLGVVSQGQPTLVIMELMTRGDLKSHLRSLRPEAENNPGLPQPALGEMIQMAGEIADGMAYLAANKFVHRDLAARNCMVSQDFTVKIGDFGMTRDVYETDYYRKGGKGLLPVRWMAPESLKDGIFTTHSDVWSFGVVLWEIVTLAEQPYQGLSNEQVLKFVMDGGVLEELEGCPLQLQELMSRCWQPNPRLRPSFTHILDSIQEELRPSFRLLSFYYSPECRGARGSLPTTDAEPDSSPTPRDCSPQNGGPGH", "assay": "Inhibition of IRR (unknown origin) at 1 uM"}, "[23]": {"target": "Epithelial discoidin domain-containing receptor 1 (Homo sapiens) (UniProt Q08345)", "assay": "Inhibition of DDR1 (unknown origin) at 1 uM"}, "[24]": {"target": "Ribosomal protein S6 kinase alpha-2 (Homo sapiens) (UniProt Q15349)", "assay": "Inhibition of Rsk3 (unknown origin) at 1 uM"}, "[25]": {"target": "Serine/threonine-protein kinase mTOR (Homo sapiens) (UniProt P42345)", "assay": "Inhibition of mTOR (unknown origin) at 1 uM"}, "[26]": {"target": "Vascular endothelial growth factor receptor 2 (Homo sapiens) (UniProt P35968)", "assay": "Inhibition of KDR (unknown origin) at 1 uM"}, "[27]": {"assay": "Cytotoxicity against human T cells assessed as cell proliferation"}, "[28]": {"target": "Mitogen-activated protein kinase 1 (Homo sapiens) (UniProt P28482)", "sequence (P28482 whole entry)": "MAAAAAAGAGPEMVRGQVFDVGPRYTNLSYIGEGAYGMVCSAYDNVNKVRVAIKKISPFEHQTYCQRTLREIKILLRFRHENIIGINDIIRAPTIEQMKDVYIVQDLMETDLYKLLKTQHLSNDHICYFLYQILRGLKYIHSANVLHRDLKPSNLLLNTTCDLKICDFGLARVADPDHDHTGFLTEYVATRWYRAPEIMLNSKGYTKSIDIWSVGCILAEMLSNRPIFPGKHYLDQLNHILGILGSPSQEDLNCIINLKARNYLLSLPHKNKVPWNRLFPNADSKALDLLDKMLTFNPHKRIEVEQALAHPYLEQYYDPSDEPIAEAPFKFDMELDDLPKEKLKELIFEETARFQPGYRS", "assay": "Inhibition of ERK2 (unknown origin) at 1 uM"}, "[29]": {"target": "Mast/stem cell growth factor receptor Kit (Homo sapiens) (UniProt P10721)", "sequence (P10721 whole entry)": "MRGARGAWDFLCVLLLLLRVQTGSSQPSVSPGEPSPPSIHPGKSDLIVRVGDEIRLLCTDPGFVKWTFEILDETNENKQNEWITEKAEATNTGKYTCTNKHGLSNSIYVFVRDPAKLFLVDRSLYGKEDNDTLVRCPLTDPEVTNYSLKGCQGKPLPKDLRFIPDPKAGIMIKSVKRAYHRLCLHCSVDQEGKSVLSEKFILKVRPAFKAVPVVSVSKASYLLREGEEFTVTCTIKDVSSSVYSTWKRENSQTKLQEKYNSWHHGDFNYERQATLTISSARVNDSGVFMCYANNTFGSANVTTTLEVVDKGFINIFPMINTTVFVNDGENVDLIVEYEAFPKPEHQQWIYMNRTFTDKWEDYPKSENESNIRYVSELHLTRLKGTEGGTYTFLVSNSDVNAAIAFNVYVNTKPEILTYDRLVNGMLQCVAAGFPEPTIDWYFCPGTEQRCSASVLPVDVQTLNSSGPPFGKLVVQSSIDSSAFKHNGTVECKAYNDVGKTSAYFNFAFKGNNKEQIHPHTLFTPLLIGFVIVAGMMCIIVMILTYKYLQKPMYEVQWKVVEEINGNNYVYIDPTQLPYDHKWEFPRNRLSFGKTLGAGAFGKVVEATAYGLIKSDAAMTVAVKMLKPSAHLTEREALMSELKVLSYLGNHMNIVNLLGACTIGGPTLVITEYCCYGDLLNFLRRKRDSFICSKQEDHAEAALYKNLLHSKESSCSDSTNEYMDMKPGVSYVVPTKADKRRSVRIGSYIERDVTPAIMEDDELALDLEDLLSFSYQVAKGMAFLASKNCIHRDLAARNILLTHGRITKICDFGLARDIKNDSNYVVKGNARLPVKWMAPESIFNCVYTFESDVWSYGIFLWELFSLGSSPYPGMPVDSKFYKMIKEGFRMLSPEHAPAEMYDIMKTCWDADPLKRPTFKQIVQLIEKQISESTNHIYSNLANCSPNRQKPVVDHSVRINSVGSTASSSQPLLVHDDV", "assay": "Inhibition of Kit (unknown origin) at 1 uM"}, "[30]": {"target": "SRSF protein kinase 3 (Homo sapiens) (UniProt Q9UPE1)", "assay": "Inhibition of MSSK1 (unknown origin) at 1 uM"}, "[31]": {"target": "Glycogen synthase kinase-3 alpha (Homo sapiens) (UniProt P49840)", "assay": "Inhibition of GSK3 alpha (unknown origin) at 1 uM"}, "[32]": {"target": "Testis-specific serine/threonine-protein kinase 1 (Homo sapiens) (UniProt Q9BXA7)", "assay": "Inhibition of TSSK1 (unknown origin) at 1 uM"}, "[33]": {"target": "Serine/threonine-protein kinase N1 (Homo sapiens) (UniProt Q16512)", "assay": "Inhibition of PRK1 (unknown origin) at 1 uM"}, "[34]": {"target": "Phosphorylase b kinase gamma catalytic chain, skeletal muscle/heart isoform (Homo sapiens) (UniProt Q16816)", "sequence (Q16816 whole entry, looked up, canonical isoform)": "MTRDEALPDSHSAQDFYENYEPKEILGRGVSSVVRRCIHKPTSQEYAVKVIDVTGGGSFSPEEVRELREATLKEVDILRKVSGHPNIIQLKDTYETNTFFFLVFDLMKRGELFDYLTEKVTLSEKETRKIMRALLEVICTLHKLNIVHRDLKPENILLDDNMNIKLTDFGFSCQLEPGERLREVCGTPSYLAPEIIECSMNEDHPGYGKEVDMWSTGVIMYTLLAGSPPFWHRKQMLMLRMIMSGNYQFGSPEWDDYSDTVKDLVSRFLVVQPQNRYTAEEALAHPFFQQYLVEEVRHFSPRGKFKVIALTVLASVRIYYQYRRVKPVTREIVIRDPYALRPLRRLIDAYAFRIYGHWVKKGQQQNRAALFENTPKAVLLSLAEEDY", "assay": "Inhibition of PhK gamma1 (unknown origin) at 1 uM"}, "[35]": {"target": "Serine/threonine-protein kinase SIK2 (Homo sapiens) (UniProt Q9H0K1)", "assay": "Inhibition of SIK2 (unknown origin) at 1 uM"}, "[36]": {"target": "Serine/threonine-protein kinase D1 (PRKD1) (Homo sapiens) (UniProt Q15139)", "sequence (Q15139 whole entry, looked up)": "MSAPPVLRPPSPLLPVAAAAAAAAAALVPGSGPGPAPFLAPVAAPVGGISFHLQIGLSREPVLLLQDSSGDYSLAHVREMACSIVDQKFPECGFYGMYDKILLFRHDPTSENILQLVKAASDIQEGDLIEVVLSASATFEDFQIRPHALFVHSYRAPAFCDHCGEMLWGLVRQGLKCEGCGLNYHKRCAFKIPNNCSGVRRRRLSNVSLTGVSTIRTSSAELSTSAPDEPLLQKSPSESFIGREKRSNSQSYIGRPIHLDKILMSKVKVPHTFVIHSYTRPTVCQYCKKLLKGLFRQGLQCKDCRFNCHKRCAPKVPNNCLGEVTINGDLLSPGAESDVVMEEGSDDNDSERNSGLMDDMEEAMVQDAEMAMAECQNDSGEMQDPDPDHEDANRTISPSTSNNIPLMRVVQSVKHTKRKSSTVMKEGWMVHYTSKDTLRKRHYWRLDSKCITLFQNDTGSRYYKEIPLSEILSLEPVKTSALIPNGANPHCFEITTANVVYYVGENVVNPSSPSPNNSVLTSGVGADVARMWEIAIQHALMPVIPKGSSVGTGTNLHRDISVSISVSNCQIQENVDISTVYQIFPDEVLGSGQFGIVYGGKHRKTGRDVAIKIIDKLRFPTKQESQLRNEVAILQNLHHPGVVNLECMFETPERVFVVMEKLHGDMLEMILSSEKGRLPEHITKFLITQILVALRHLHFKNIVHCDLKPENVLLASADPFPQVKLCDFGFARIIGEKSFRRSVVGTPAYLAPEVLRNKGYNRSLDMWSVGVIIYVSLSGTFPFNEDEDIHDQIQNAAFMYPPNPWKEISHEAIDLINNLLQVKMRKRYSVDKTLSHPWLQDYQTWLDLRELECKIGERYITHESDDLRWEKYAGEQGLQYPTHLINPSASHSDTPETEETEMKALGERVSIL", "assay": "Inhibition of PKD1 (unknown origin) at 1 uM"}, "[37]": {"target": "Casein kinase I isoform epsilon (Homo sapiens) (UniProt P49674)", "assay": "Inhibition of CK1 epsilon1 (unknown origin) at 1 uM"}, "[38]": {"target": "Mitogen-activated protein kinase kinase kinase 9 (Homo sapiens) (UniProt P80192)", "assay": "Inhibition of MLK1 (unknown origin) at 1 uM"}, "[39]": {"tested_on": "Epidermal growth factor receptor (Homo sapiens), P00533 [L858R,T790M]", "assay": "Inhibition of EGFR T790M,L858R mutant (unknown origin) at 1 uM", "format": "protein assay"}, "[40]": {"target": "Tyrosine-protein kinase Yes (Homo sapiens) (UniProt P07947)", "assay": "Inhibition of Yes (unknown origin) at 1 uM"}, "[41]": {"target": "Serine/threonine-protein kinase Nek6 (Homo sapiens) (UniProt Q9HC98)", "assay": "Inhibition of NEK6 (unknown origin) at 1 uM"}, "[42]": {"target": "Mitogen-activated protein kinase kinase kinase 20 (Homo sapiens) (UniProt Q9NYL2)", "assay": "Inhibition of ZAK (unknown origin) at 1 uM"}, "[43]": {"target": "Aurora kinase A (Homo sapiens) (UniProt O14965)", "assay": "Inhibition of AuroraA (unknown origin) at 1 uM"}, "[44]": {"target": "Tyrosine-protein kinase CSK (Homo sapiens) (UniProt P41240)", "assay": "Inhibition of CSK (unknown origin) at 1 uM"}},
  "data": [
    {"smiles": "Cc1c(-c2cc(Nc3cc4n(n3)CCN(C)C4)c(=O)[nH]n2)ccc(F)c1NC(=O)c1cc2ccccc2s1", "values": [
      {"measurement": "inhibition", "setting": "[1]", "result": 0.2, "unit": "%"},
      {"measurement": "inhibition", "setting": "[2]", "result": 4.5, "unit": "%"},
      {"measurement": "inhibition", "setting": "[3]", "result": 8.3, "unit": "%"},
      {"measurement": "inhibition", "setting": "[4]", "result": 15.7, "unit": "%"},
      {"measurement": "inhibition", "setting": "[5]", "result": 35.1, "unit": "%"},
      {"measurement": "IC50", "setting": "[6]", "result": 230, "unit": "nM"},
      {"measurement": "inhibition", "setting": "[7]", "result": 13.8, "unit": "%"},
      {"measurement": "inhibition", "setting": "[8]", "result": -3.6, "unit": "%"},
      {"measurement": "inhibition", "setting": "[9]", "result": 5.6, "unit": "%"},
      {"measurement": "inhibition", "setting": "[10]", "result": 3, "unit": "%"},
      {"measurement": "inhibition", "setting": "[11]", "result": 2.4, "unit": "%"},
      {"measurement": "inhibition", "setting": "[12]", "result": 0.4, "unit": "%"},
      {"measurement": "inhibition", "setting": "[13]", "result": -4.5, "unit": "%"},
      {"measurement": "inhibition", "setting": "[14]", "result": 8.7, "unit": "%"},
      {"measurement": "inhibition", "setting": "[15]", "result": 1.8, "unit": "%"},
      {"measurement": "inhibition", "setting": "[16]", "result": -9.9, "unit": "%"},
      {"measurement": "Activity", "setting": "Salmonella typhimurium", "result": "Non-toxic"},
      {"measurement": "inhibition", "setting": "[17]", "result": 3.4, "unit": "%"},
      {"measurement": "inhibition", "setting": "[18]", "result": 5.8, "unit": "%"},
      {"measurement": "inhibition", "setting": "[19]", "result": 13, "unit": "%"},
      {"measurement": "inhibition", "setting": "[20]", "result": 3.8, "unit": "%"},
      {"measurement": "inhibition", "setting": "[21]", "result": 5.8, "unit": "%"},
      {"measurement": "inhibition", "setting": "[22]", "result": 2.3, "unit": "%"},
      {"measurement": "inhibition", "setting": "[23]", "result": 0.8, "unit": "%"},
      {"measurement": "inhibition", "setting": "[24]", "result": -0.6, "unit": "%"},
      {"measurement": "inhibition", "setting": "[25]", "result": 1.1, "unit": "%"},
      {"measurement": "inhibition", "setting": "[26]", "result": -2.4, "unit": "%"},
      {"measurement": "EC50", "setting": "[27]", "result": "> 5", "unit": "µM"},
      {"measurement": "inhibition", "setting": "[28]", "result": 6.8, "unit": "%"},
      {"measurement": "inhibition", "setting": "[29]", "result": 1.9, "unit": "%"},
      {"measurement": "inhibition", "setting": "[30]", "result": 3.4, "unit": "%"},
      {"measurement": "inhibition", "setting": "[31]", "result": 7.5, "unit": "%"},
      {"measurement": "inhibition", "setting": "[32]", "result": 0, "unit": "%"},
      {"measurement": "inhibition", "setting": "[33]", "result": -3.7, "unit": "%"},
      {"measurement": "inhibition", "setting": "[34]", "result": -1.2, "unit": "%"},
      {"measurement": "inhibition", "setting": "[35]", "result": -3.9, "unit": "%"},
      {"measurement": "inhibition", "setting": "[36]", "result": 1.6, "unit": "%"},
      {"measurement": "inhibition", "setting": "[37]", "result": 8.6, "unit": "%"},
      {"measurement": "inhibition", "setting": "[38]", "result": -7.5, "unit": "%"},
      {"measurement": "inhibition", "setting": "[39]", "result": 6.1, "unit": "%"},
      {"measurement": "inhibition", "setting": "[40]", "result": 20.8, "unit": "%"},
      {"measurement": "inhibition", "setting": "[41]", "result": 5.3, "unit": "%"},
      {"measurement": "inhibition", "setting": "[42]", "result": 0.8, "unit": "%"},
      {"measurement": "inhibition", "setting": "[43]", "result": 1.1, "unit": "%"},
      {"measurement": "inhibition", "setting": "[44]", "result": 5.2, "unit": "%"}
    ]}
  ]
}
